Reference: patent publication US20180055032A1, “ODORS FOR PSYLLID TRAPPING, REPELLING AND CONTROL” (The Regents of the University of California, priority 2011, published 2018)

What was measured:
Type in all cases: cell-based, Diaphorina citri
[1] = tested on: neuron 6C (rhinarial plate on flagellomere 6); assay: single-sensillum electrophysiology, odor response of neuron 6C; conditions: for odor response (frequency of action potentials during stimulus minus baseline), 6C: Table 1, odor diluted to 1%, 50 μL in cartridge; for response to inhibitory odors, 6C: Table 2, odor diluted to 10^−2, 50 μL in cartridge; on response to inhibitory odors, 6C: key: 0, no response; +, >50 spikes/second; ++, >100 spikes/second; +++, >150 spikes/second
[2] = tested on: neuron 4A (rhinarial plate on flagellomere 4); assay: single-sensillum electrophysiology, odor response of neuron 4A; conditions: for odor response (frequency of action potentials during stimulus minus baseline), 4A: Table 1, odor diluted to 1%, 50 μL in cartridge; for response to inhibitory odors, 4A: Table 2, odor diluted to 10^−2, 50 μL in cartridge; on response to inhibitory odors, 4A: key: 0, no response; +, >50 spikes/second; ++, >100 spikes/second; +++, >150 spikes/second
[3] = tested on: neuron 2A (rhinarial plate on flagellomere 2); assay: single-sensillum electrophysiology, odor response of neuron 2A; conditions: for odor response (frequency of action potentials during stimulus minus baseline), 2A: Table 1, odor diluted to 1%, 50 μL in cartridge; for response to inhibitory odors, 2A: Table 2, odor diluted to 10^−2, 50 μL in cartridge; on all read-outs here: key: 0, no response; +, >50 spikes/second; ++, >100 spikes/second; +++, >150 spikes/second
[4] = tested on: neuron 7C (rhinarial plate on flagellomere 7); assay: single-sensillum electrophysiology, odor response of neuron 7C; conditions: for odor response (frequency of action potentials during stimulus minus baseline), 7C: Table 1, odor diluted to 1%, 50 μL in cartridge; for response to inhibitory odors, 7C: Table 2, odor diluted to 10^−2, 50 μL in cartridge
[5] = tested on: neuron 6B (rhinarial plate on flagellomere 6); assay: single-sensillum electrophysiology, odor response of neuron 6B; conditions: for odor response (frequency of action potentials during stimulus minus baseline), 6B: Table 1, odor diluted to 1%, 50 μL in cartridge; for response to inhibitory odors, 6B: Table 2, odor diluted to 10^−2, 50 μL in cartridge
[6] = tested on: neuron 2B (rhinarial plate on flagellomere 2); assay: single-sensillum electrophysiology, odor response of neuron 2B; conditions: for odor response (frequency of action potentials during stimulus minus baseline), 2B: Table 1, odor diluted to 1%, 50 μL in cartridge; for response to inhibitory odors, 2B: Table 2, odor diluted to 10^−2, 50 μL in cartridge
[7] = tested on: neuron 7A (rhinarial plate on flagellomere 7); assay: single-sensillum electrophysiology, odor response of neuron 7A; conditions: for odor response (frequency of action potentials during stimulus minus baseline), 7A: Table 1, odor diluted to 1%, 50 μL in cartridge; for response to inhibitory odors, 7A: Table 2, odor diluted to 10^−2, 50 μL in cartridge; on all read-outs here: key: 0, no response; +, >50 spikes/second; ++, >100 spikes/second; +++, >150 spikes/second
[8] = tested on: neuron 2C (rhinarial plate on flagellomere 2); assay: single-sensillum electrophysiology, odor response of neuron 2C; conditions: for odor response (frequency of action potentials during stimulus minus baseline), 2C: Table 1, odor diluted to 1%, 50 μL in cartridge
[9] = tested on: neuron 6A (rhinarial plate on flagellomere 6); assay: single-sensillum electrophysiology, odor response of neuron 6A; conditions: for odor response (frequency of action potentials during stimulus minus baseline), 6A: Table 1, odor diluted to 1%, 50 μL in cartridge; for response to inhibitory odors, 6A: Table 2, odor diluted to 10^−2, 50 μL in cartridge
[10] = tested on: neuron 4B (rhinarial plate on flagellomere 4); conditions: for odor response (frequency of action potentials during stimulus minus baseline), 4B: Table 1, odor diluted to 1%, 50 μL in cartridge; for response to inhibitory odors, 4B: Table 2, odor diluted to 10^−2, 50 μL in cartridge
[11] = tested on: neuron 4C (rhinarial plate on flagellomere 4); assay: single-sensillum electrophysiology, odor response of neuron 4C; conditions: for odor response (frequency of action potentials during stimulus minus baseline), 4C: Table 1, odor diluted to 1%, 50 μL in cartridge; for response to inhibitory odors, 4C: Table 2, odor diluted to 10^−2, 50 μL in cartridge
[12] = tested on: neuron 7B (rhinarial plate on flagellomere 7); conditions: for odor response (frequency of action potentials during stimulus minus baseline), 7B: Table 1, odor diluted to 1%, 50 μL in cartridge
[13] = Table 2, odor diluted to 10^−2, 50 μL in cartridge

C=C/C(C)=C\C/C=C(\C)CCC=C(C)C [ZE-α-farnesene]
odor response (frequency of action potentials during stimulus minus baseline), 6C [1]: 0
odor response (frequency of action potentials during stimulus minus baseline), 4A [2]: 0
odor response (frequency of action potentials during stimulus minus baseline), 2A [3]: 0
odor response (frequency of action potentials during stimulus minus baseline), 7C [4]: 0
odor response (frequency of action potentials during stimulus minus baseline), 6B [5]: 0
odor response (frequency of action potentials during stimulus minus baseline), 2B [6]: 0
odor response (frequency of action potentials during stimulus minus baseline), 7A [7]: 0
odor response (frequency of action potentials during stimulus minus baseline), 2C [8]: + (+, >50 spikes/second)
odor response (frequency of action potentials during stimulus minus baseline), 6A [9]: 0
odor response (frequency of action potentials during stimulus minus baseline), 4B [10]: 0
odor response (frequency of action potentials during stimulus minus baseline), 4C [11]: 0
odor response (frequency of action potentials during stimulus minus baseline), 7B [12]: 0

CCCCCCCCO [1-octanol]
odor response (frequency of action potentials during stimulus minus baseline), 6C [1]: 0
odor response (frequency of action potentials during stimulus minus baseline), 4A [2]: 0
odor response (frequency of action potentials during stimulus minus baseline), 2A [3]: 0
odor response (frequency of action potentials during stimulus minus baseline), 7C [4]: 0
odor response (frequency of action potentials during stimulus minus baseline), 6B [5]: + (+, >50 spikes/second)
odor response (frequency of action potentials during stimulus minus baseline), 2B [6]: 0
odor response (frequency of action potentials during stimulus minus baseline), 7A [7]: 0
odor response (frequency of action potentials during stimulus minus baseline), 2C [8]: 0
odor response (frequency of action potentials during stimulus minus baseline), 6A [9]: 0
odor response (frequency of action potentials during stimulus minus baseline), 4B [10]: + (+, >50 spikes/second)
odor response (frequency of action potentials during stimulus minus baseline), 4C [11]: 0
odor response (frequency of action potentials during stimulus minus baseline), 7B [12]: 0

CC(=O)CCC=C(C)C [6-methyl-5-hepten-2-one]
odor response (frequency of action potentials during stimulus minus baseline), 6C [1]: 0
odor response (frequency of action potentials during stimulus minus baseline), 4A [2]: 0
odor response (frequency of action potentials during stimulus minus baseline), 2A [3]: 0
odor response (frequency of action potentials during stimulus minus baseline), 7C [4]: 0
odor response (frequency of action potentials during stimulus minus baseline), 6B [5]: 0
odor response (frequency of action potentials during stimulus minus baseline), 2B [6]: 0
odor response (frequency of action potentials during stimulus minus baseline), 7A [7]: 0
odor response (frequency of action potentials during stimulus minus baseline), 2C [8]: + (+, >50 spikes/second)
odor response (frequency of action potentials during stimulus minus baseline), 6A [9]: 0
odor response (frequency of action potentials during stimulus minus baseline), 4B [10]: 0
odor response (frequency of action potentials during stimulus minus baseline), 4C [11]: 0
odor response (frequency of action potentials during stimulus minus baseline), 7B [12]: 0

CC(C)=CCCC(C)=CC=O [citral]
odor response (frequency of action potentials during stimulus minus baseline), 6C [1]: 0
odor response (frequency of action potentials during stimulus minus baseline), 4A [2]: 0
odor response (frequency of action potentials during stimulus minus baseline), 2A [3]: 0
odor response (frequency of action potentials during stimulus minus baseline), 7C [4]: 0
odor response (frequency of action potentials during stimulus minus baseline), 6B [5]: 0
odor response (frequency of action potentials during stimulus minus baseline), 2B [6]: 0
odor response (frequency of action potentials during stimulus minus baseline), 7A [7]: 0
odor response (frequency of action potentials during stimulus minus baseline), 2C [8]: ++ (++, >100 spikes/second)
odor response (frequency of action potentials during stimulus minus baseline), 6A [9]: 0
odor response (frequency of action potentials during stimulus minus baseline), 4B [10]: 0
odor response (frequency of action potentials during stimulus minus baseline), 4C [11]: 0
odor response (frequency of action potentials during stimulus minus baseline), 7B [12]: 0

CCCSSCCC [dipropyl disulfide]
odor response (frequency of action potentials during stimulus minus baseline), 6C [1]: 0
odor response (frequency of action potentials during stimulus minus baseline), 4A [2]: 0
odor response (frequency of action potentials during stimulus minus baseline), 2A [3]: 0
odor response (frequency of action potentials during stimulus minus baseline), 7C [4]: 0
odor response (frequency of action potentials during stimulus minus baseline), 6B [5]: ++ (++, >100 spikes/second)
odor response (frequency of action potentials during stimulus minus baseline), 2B [6]: 0
odor response (frequency of action potentials during stimulus minus baseline), 7A [7]: 0
odor response (frequency of action potentials during stimulus minus baseline), 2C [8]: 0
odor response (frequency of action potentials during stimulus minus baseline), 6A [9]: 0
odor response (frequency of action potentials during stimulus minus baseline), 4B [10]: + (+, >50 spikes/second)
odor response (frequency of action potentials during stimulus minus baseline), 4C [11]: 0
odor response (frequency of action potentials during stimulus minus baseline), 7B [12]: 0

C=CCSSSCC=C [diallyl trisulfide]
odor response (frequency of action potentials during stimulus minus baseline), 6C [1]: 0
odor response (frequency of action potentials during stimulus minus baseline), 4A [2]: 0
odor response (frequency of action potentials during stimulus minus baseline), 2A [3]: 0
odor response (frequency of action potentials during stimulus minus baseline), 7C [4]: 0
odor response (frequency of action potentials during stimulus minus baseline), 6B [5]: + (+, >50 spikes/second)
odor response (frequency of action potentials during stimulus minus baseline), 2B [6]: 0
odor response (frequency of action potentials during stimulus minus baseline), 7A [7]: 0
odor response (frequency of action potentials during stimulus minus baseline), 2C [8]: 0
odor response (frequency of action potentials during stimulus minus baseline), 6A [9]: 0
odor response (frequency of action potentials during stimulus minus baseline), 4B [10]: + (+, >50 spikes/second)
odor response (frequency of action potentials during stimulus minus baseline), 4C [11]: 0
odor response (frequency of action potentials during stimulus minus baseline), 7B [12]: 0

CCCC(=O)OCC [ethyl butyrate]
odor response (frequency of action potentials during stimulus minus baseline), 6C [1]: 0
odor response (frequency of action potentials during stimulus minus baseline), 4A [2]: 0
odor response (frequency of action potentials during stimulus minus baseline), 2A [3]: 0
odor response (frequency of action potentials during stimulus minus baseline), 7C [4]: ++ (++, >100 spikes/second)
odor response (frequency of action potentials during stimulus minus baseline), 6B [5]: ++ (++, >100 spikes/second)
odor response (frequency of action potentials during stimulus minus baseline), 2B [6]: 0
odor response (frequency of action potentials during stimulus minus baseline), 7A [7]: 0
odor response (frequency of action potentials during stimulus minus baseline), 2C [8]: + (+, >50 spikes/second)
odor response (frequency of action potentials during stimulus minus baseline), 6A [9]: 0
odor response (frequency of action potentials during stimulus minus baseline), 4B [10]: +++ (+++, >150 spikes/second)
odor response (frequency of action potentials during stimulus minus baseline), 4C [11]: 0
odor response (frequency of action potentials during stimulus minus baseline), 7B [12]: 0

CC1=CCC(=C(C)C)CC1 [terpinolene]
odor response (frequency of action potentials during stimulus minus baseline), 6C [1]: 0
odor response (frequency of action potentials during stimulus minus baseline), 4A [2]: 0
odor response (frequency of action potentials during stimulus minus baseline), 2A [3]: 0
odor response (frequency of action potentials during stimulus minus baseline), 7C [4]: 0
odor response (frequency of action potentials during stimulus minus baseline), 6B [5]: + (+, >50 spikes/second)
odor response (frequency of action potentials during stimulus minus baseline), 2B [6]: 0
odor response (frequency of action potentials during stimulus minus baseline), 7A [7]: 0
odor response (frequency of action potentials during stimulus minus baseline), 2C [8]: 0
odor response (frequency of action potentials during stimulus minus baseline), 6A [9]: 0
odor response (frequency of action potentials during stimulus minus baseline), 4B [10]: + (+, >50 spikes/second)
odor response (frequency of action potentials during stimulus minus baseline), 4C [11]: 0
odor response (frequency of action potentials during stimulus minus baseline), 7B [12]: 0

(−)-limonene
odor response (frequency of action potentials during stimulus minus baseline), 6C [1]: 0
odor response (frequency of action potentials during stimulus minus baseline), 4A [2]: 0
odor response (frequency of action potentials during stimulus minus baseline), 2A [3]: 0
odor response (frequency of action potentials during stimulus minus baseline), 7C [4]: 0
odor response (frequency of action potentials during stimulus minus baseline), 6B [5]: + (+, >50 spikes/second)
odor response (frequency of action potentials during stimulus minus baseline), 2B [6]: 0
odor response (frequency of action potentials during stimulus minus baseline), 7A [7]: 0
odor response (frequency of action potentials during stimulus minus baseline), 2C [8]: 0
odor response (frequency of action potentials during stimulus minus baseline), 6A [9]: 0
odor response (frequency of action potentials during stimulus minus baseline), 4B [10]: + (+, >50 spikes/second)
odor response (frequency of action potentials during stimulus minus baseline), 4C [11]: 0
odor response (frequency of action potentials during stimulus minus baseline), 7B [12]: 0

C=C(C)C1CC=C(C=O)CC1 (stereo not drawn) [perillaldehyde]
odor response (frequency of action potentials during stimulus minus baseline), 6C [1]: 0
response to inhibitory odors, 6C [1]: 0
odor response (frequency of action potentials during stimulus minus baseline), 4A [2]: 0
response to inhibitory odors, 4A [2]: 0
odor response (frequency of action potentials during stimulus minus baseline), 2A [3]: 0
response to inhibitory odors, 2A [3]: 0
odor response (frequency of action potentials during stimulus minus baseline), 7C [4]: 0
response to inhibitory odors, 7C [4]: 0
odor response (frequency of action potentials during stimulus minus baseline), 6B [5]: + (+, >50 spikes/second)
response to inhibitory odors, 6B [5]: 0
odor response (frequency of action potentials during stimulus minus baseline), 2B [6]: 0
response to inhibitory odors, 2B [6]: 0
odor response (frequency of action potentials during stimulus minus baseline), 7A [7]: 0
response to inhibitory odors, 7A [7]: 0
odor response (frequency of action potentials during stimulus minus baseline), 6A [9]: 0
response to inhibitory odors, 6A [9]: 0
odor response (frequency of action potentials during stimulus minus baseline), 4B [10]: + (+, >50 spikes/second)
response to inhibitory odors, 4B [10]: 0
odor response (frequency of action potentials during stimulus minus baseline), 4C [11]: 0
response to inhibitory odors, 4C [11]: 0
odor response (frequency of action potentials during stimulus minus baseline), 7B [12]: 0
response to inhibitory odors, 7B [12, 13]: 0

CCCCC(=O)O [pentanoic acid]
response to inhibitory odors, 6C [1]: 0
response to inhibitory odors, 4A [2]: 0
response to inhibitory odors, 2A [3]: 0
response to inhibitory odors, 7C [4]: 0
response to inhibitory odors, 6B [5]: 0
response to inhibitory odors, 2B [6]: 0
response to inhibitory odors, 7A [7]: 0
response to inhibitory odors, 2C [8, 13]: 0
response to inhibitory odors, 6A [9]: 0
response to inhibitory odors, 4B [10]: 0
response to inhibitory odors, 4C [11]: 0
